US6448431B1, “Production of aryl carboxylate esters” (priority 1999, dated 2002)

Legend:
[1] = cited from earlier work
[2] = Solubility of NOBS in selected solvents; type: physicochemical; conditions: 23° C., grams of NOBS soluble in 100 grams of solution
From the text: The solvent properties of TFA are unique and highly advantageous in the synthesis of phenolsulfonate esters. […] It is notable that the only solvent in which NOBS is more soluble than water is TFA. I have found no better solvent for NOBS than TFA. This is surprising. […] It is likely that hydrogen bonding in TFA facilitates the solvation of sulfonate anions but it is notable, in contrast, that such effects are much weaker in acetic acid. Furthermore, while it is known in the art that dimethyl sulfoxide (DMSO) and dimethylformamide (DMF) are relatively good solvents for benzenesulfonate esters they are much weaker solvents than TFA and because TFA has a much lower boiling point than these dipolar aprotic solvents it is the only good solvent for benzenesulfonate esters which can be readily stripped from product solutions and then purified and recycled with relative ease.

O=C(O)C(F)(F)F [CF3CO2H, trifluoroacetic acid]
Aqueous pKa [1]: 0.22

CCCCCCCCC(=O)Oc1ccc(S(=O)(=O)[O-])cc1.[Na+] [NOBS, sodium 4-(nonanoyloxy)benzenesulfonate]
Solubility of NOBS, wt % NOBS ([2]; solvent DMF): 10.1 wt % | Solubility of NOBS, wt % NOBS ([2]; solvent DMSO): 15.9 wt % | Solubility of NOBS, wt % NOBS ([2]; solvent NMP): 8.4 wt % | Solubility of NOBS, wt % NOBS ([2]; solvent TFA): 23.4 wt % | Solubility of NOBS, wt % NOBS ([2]; solvent acetic acid): 1.7 wt % | Solubility of NOBS, wt % NOBS ([2]; solvent acetone): 0.02 wt % | Solubility of NOBS, wt % NOBS ([2]; solvent acetonitrile): 0.01 wt % | Solubility of NOBS, wt % NOBS ([2]; solvent nonanoic acid): 0.03 wt % | Solubility of NOBS, wt % NOBS ([2]; solvent water): 22.8 wt %
